Data as given in patent publication US20260183274A1, “PDK1 REGULATORY COMPOUND AND COMPOSITION CONTAINING THE SAME” (PROVIBIO CO., LTD., priority 2024, published 2026).

Key:
[1] = system: Human Gastric cancer cell, SNU-719; experiment: Relative cell viability CCK-8, SNU-719; type: cell-based; conditions: 48 hours
Protocol: (§1) Human-derived breast cancer cell line MCF-7, human-derived lung cancer cell line A549, human-derived colorectal cancer cell line HCT-116, human pancreatic cancer cell line AsPC-1, glioblastoma cell line A172, and melanoma cell line Malme-3M were obtained from the Korean Cell Bank. gastric cancer cell line SNU-719, and bladder cancer cell line T24 were cultured in RPMI-1640 medium containing 10% FBS.
(§2) Following stabilization, the cells were harvested using Trypsin-EDTA treatment, centrifuged at 1,200 rpm for 3 minutes, the supernatant was removed, and the cells were resuspended in the same medium. They were then seeded into a 96-well plate (Costar 96-well cell culture plate, Corning) at 100 μL per well, and the conditions were adjusted as indicated in Table 5.
(§3) The cells were cultured in a 5% CO2 incubator at 37° C. for 24 hours, and after stabilization of the cells, each plate was washed with 200 μL of PBS per well and treated with 50 μL of culture medium per well.
(§4) After that, 10 μL of CCK-8 was added to each well, and the plate was incubated again at 37° C. in a 5% CO2 incubator for 2 hours.
(§5) In other words, when the survival rate of untreated cells (DMSO) is set at 100%, the relative cell survival rate in each group treated with the drug at different concentrations is indicated.

[2] = system: Human Bladder cancer cell, T24; experiment: Relative cell viability CCK-8, T24; type: cell-based; conditions: Homo sapiens, 48 h
Protocol: as §1, §2, §3, §4, §5

[3] = system: T cells isolated from mouse spleens; experiment: T cell proliferation inhibition (CFSE flow cytometry, anti-CD3/anti-CD28 stimulation); type: cell-based; conditions: Mus musculus, T-cell, 72 h, mouse spleen T cells, 3 days, read-out: Proliferation inhibition rate (%); for inhibition at 0.01 µM: compound 10 nM; for inhibition at 0.1 µM: compound 100 nM; for inhibition at 1 µM: compound 1 μM; for inhibition at 10 µM: compound 10 μM; for inhibition at 30 µM: compound 30 μM; for inhibition at 50 µM: compound 50 μM
Procedure, shortened: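 Splenic T cells from 7-week-old C57BL/6 mice were MACS-isolated, CFSE-labelled, seeded at 2×10^5 cells/well and activated with anti-CD3/anti-CD28 (0.5 μg/mL each). Compound at 10 nM–50 μM (six levels, triplicate) was present for 3 days at 37 °C before flow cytometric readout of proliferation inhibition rate.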

[4] = system: Human Pancreas Adenocarcinoma cell line, AsPC-1; experiment: Relative cell viability CCK-8, AsPC-1; type: cell-based; conditions: 48 hours
Protocol: as §1, §2, §3, §4, §5

[5] = system: Human B Lymphocyte cell line, SU-DHL-8; experiment: Relative cell viability CCK-8, SU-DHL-8; type: cell-based; conditions: Homo sapiens, SU-DHL-8, 48 h, 48 hours, untreated (DMSO) = 100%; for viability at 1 µM: read-out: Relative cell viability (%), SU-DHL-8, 1 μM; for viability at 10 µM: read-out: Relative cell viability (%), SU-DHL-8, 10 μM; for viability at 30 µM: read-out: Relative cell viability (%), SU-DHL-8, 30 μM; for viability at 50 µM: read-out: Relative cell viability (%), SU-DHL-8, 50 μM
Procedure, shortened: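 Cells grown in RPMI-1640 with 10% FBS, treated with compound at several concentrations, then given CCK-8 for 4 h at 37° C. Viability expressed as percent of DMSO-treated cells.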

[6] = system: HCT-116 colon cancer cell lines; experiment: Matrigel Invasion Assay, HCT-116; type: cell-based, human; conditions: 24 hours treatment, FIG. 30
Protocol: To evaluate the metastasis inhibitory efficacy of the compounds of the present invention on HCT-116 colon cancer cell lines, an Invasion Assay using Matrigel was performed to assess the cells' invasion ability.
First, Matrigel was thawed on ice in RPMI-1640 medium without FBS, then diluted with DMEM at a ratio of 1:20.
The diluted Matrigel mixture was applied to the upper chamber at 100 μl per well, and 750 μl of RPMI-1640 without FBS was added to the lower chamber.
The plates were then incubated at 37° C. for 1 hour to allow the Matrigel to solidify.
After coating, the Matrigel mixture in the upper chamber was removed using a pipette, and the chamber was washed with RPMI without FBS.
Human-derived colorectal cancer cell line HCT-116, obtained from the Korean Cell Bank, was cultured in RPMI-1640 medium containing 10% FBS.
Following stabilization, the cells were harvested using Trypsin-EDTA treatment, centrifuged at 1,200 rpm for 3 minutes, the supernatant was removed, and the cells were resuspended in the same medium, the medium in the lower chamber was replaced with 750 μl of RPMI-1640 supplemented with 10% FBS, and the cells were seeded into the upper chamber at a density of 5×10^4 cells/well.
The cells were cultured for 24 hours after attachment, and then the compounds according to the present invention (G078, G085, G086, G088, G089, PBK-2024-010, PBK-2025-010, PBK-2025-013, PBK-2025-016) and the control substance DMSO were diluted and added to the upper chamber after removing the medium.
Additionally, the medium in the lower chamber was replaced with fresh RPMI-1640 containing FBS, and the culture was continued.
After an additional 24 hours, the medium was removed, and 1 ml of methanol was added for 10 minutes to fix the cells.
Subsequently, 1 ml of Hematoxylin was added and reacted for 5 minutes, followed by 1 ml of Eosin, which was reacted for 30 seconds. The sample was then washed with distilled water (DW).
After staining was complete, any remaining cells in the upper chamber were removed. Finally, the infiltrated cells were observed under a microscope, photographed, and the degree of infiltration was analyzed.

[7] = system: Human Colorectal Carcinoma cell line, HCT-116; experiment: Relative cell viability CCK-8, HCT-116; type: cell-based; conditions: Homo sapiens, HCT-116, 48 hours
Protocol: as §1, §2, §3, §4, §5

[8] = system: Human Breast Cancer cell line, MCF-7; experiment: Relative cell viability CCK-8, MCF-7; type: cell-based; conditions: 48 hours
Protocol: as §1, §2, §3
(§6) The compounds according to the present invention or the control group (DMSO) were added at concentrations of 0, 10, 30, and 50 μM in 50 μL aliquots to the plates, and the plates were cultured at 37° C. in a 5% CO2 incubator for 48 hours.
as §4, §5

[9] = system: Human Cervical Carcinoma cell line, HeLa; experiment: Relative cell viability CCK-8, HeLa; type: cell-based; conditions: 48 hours
Protocol: Similarly, human-derived cervical cancer cell line HeLa and renal cancer cell line ACHN, obtained from the Korean Cell Bank, were cultured in DMEM medium containing 10% FBS, 100 U/mL penicillin, and 100 μg/mL streptomycin.
as §2, §3, §6, §4, §5

Question: How did the viability at 1 µM ([1]; 1 μM) turn out when `O=C(NCCCCCCCCCCCCN1CCN2CCCC2C1)c1cccnc1` (stereo not drawn) [Compound 23, N-(12-(hexahydropyrrolo[1,2-a]pyrazin-2 (1H)-yl)dodecyl) nicotinamide] was run?
Answer: The viability at 1 µM was 36.1%.

Question: What about the viability at 10 µM ([1]; 10 μM) of the same compound?
Answer: Its viability at 10 µM is 35.9%.

Question: And the viability at 30 µM ([1]; 30 μM)?
Answer: Its viability at 30 µM is 40.4%.

Question: And the viability at 50 µM ([1]; 50 μM)?
Answer: Its viability at 50 µM is 35.6%.

Question: What about the viability at 1 µM ([2]; 1 μM) of the same compound?
Answer: Its viability at 1 µM is 10%.

Question: And the viability at 10 µM ([2]; 10 μM)?
Answer: The viability at 10 µM was 10.1%.

Question: And the viability at 30 µM ([2]; 30 μM)?
Answer: Its viability at 30 µM is 9.53%.

Question: What about the viability at 50 µM ([2]; 50 μM) of the same compound?
Answer: Its viability at 50 µM is 9.46%.

Question: And the inhibition at 0.01 µM [3]?
Answer: The inhibition at 0.01 µM was -12.8%.

Question: And the inhibition at 0.1 µM [3]?
Answer: The inhibition at 0.1 µM was 100%.

Question: What about the inhibition at 1 µM [3] of the same compound?
Answer: The inhibition at 1 µM was 100%.

Question: And the inhibition at 10 µM [3]?
Answer: Its inhibition at 10 µM is 100%.

Question: What about the inhibition at 30 µM [3] of the same compound?
Answer: The inhibition at 30 µM was 100%.

Question: What about the inhibition at 50 µM [3] of the same compound?
Answer: The inhibition at 50 µM was 100%.

Question: And the viability at 1 µM ([4]; ASPC1, 1 μM)?
Answer: The viability at 1 µM was 42.4%.

Question: And the viability at 10 µM ([4]; ASPC1, 10 μM)?
Answer: The viability at 10 µM was 44.5%.

Question: What about the viability at 30 µM ([4]; ASPC1, 30 μM) of the same compound?
Answer: The viability at 30 µM was 42.7%.

Question: What about the viability at 50 µM ([4]; ASPC1, 50 μM) of the same compound?
Answer: The viability at 50 µM was 42%.

Question: What about the viability at 1 µM [5] of the same compound?
Answer: The viability at 1 µM was 16.1%.

Question: And the viability at 10 µM [5]?
Answer: Its viability at 10 µM is 15.7%.

Question: What about the viability at 30 µM [5] of the same compound?
Answer: Its viability at 30 µM is 9.17%.

Question: What about the viability at 50 µM [5] of the same compound?
Answer: Its viability at 50 µM is 1.97%.

Question: And the “Number of infiltrated cells (invasion)” value [6]?
Answer: The value was “reduction in the number of infiltrated cells”.

Question: What about the viability at 1 µM ([7]; 1 μM) of the same compound?
Answer: Its viability at 1 µM is 13.1%.

Question: What about the viability at 10 µM ([7]; 10 μM) of the same compound?
Answer: The viability at 10 µM was 14.6%.

Question: What about the viability at 30 µM ([7]; 30 μM) of the same compound?
Answer: The viability at 30 µM was 14%.

Question: And the viability at 50 µM ([7]; 50 μM)?
Answer: Its viability at 50 µM is 13%.

Question: How did the viability at 1 µM ([8]; MCF7, 1 μM) turn out when `Nc1ncccc1C(=O)NCCCCCCCCCCCCN1CCc2ccccc2C1` [Compound 3, 2-Amino-N-[12-(3,4-dihydro-1H-isoquinolin-2-yl)-dodecyl]-nicotinamide] was run?
Answer: The viability at 1 µM was 35.4%.

Question: What about the viability at 10 µM ([8]; MCF7, 10 μM) of the same compound?
Answer: Its viability at 10 µM is 9.1%.

Question: What about the viability at 30 µM ([8]; MCF7, 30 μM) of the same compound?
Answer: The viability at 30 µM was 4.02%.

Question: And the viability at 50 µM ([8]; MCF7, 50 μM)?
Answer: The viability at 50 µM was 1.95%.

Question: And the viability at 1 µM ([9]; 1 μM)?
Answer: The viability at 1 µM was 16.4%.

Question: What about the viability at 10 µM ([9]; 10 μM) of the same compound?
Answer: The viability at 10 µM was 3.26%.

Question: And the viability at 30 µM ([9]; 30 μM)?
Answer: The viability at 30 µM was 1.07%.

Question: What about the viability at 50 µM ([9]; 50 μM) of the same compound?
Answer: Its viability at 50 µM is 0.73%.

Question: And the inhibition at 0.01 µM [3]?
Answer: Its inhibition at 0.01 µM is 4.99%.

Question: And the inhibition at 0.1 µM [3]?
Answer: The inhibition at 0.1 µM was 0%.

Question: What about the inhibition at 1 µM [3] of the same compound?
Answer: The inhibition at 1 µM was 0%.

Question: And the inhibition at 10 µM [3]?
Answer: The inhibition at 10 µM was 88.3%.

Question: And the inhibition at 30 µM [3]?
Answer: Its inhibition at 30 µM is 100%.

Question: What about the inhibition at 50 µM [3] of the same compound?
Answer: The inhibition at 50 µM was 100%.

Question: And the viability at 1 µM [5]?
Answer: The viability at 1 µM was 29.1%.

Question: What about the viability at 10 µM [5] of the same compound?
Answer: The viability at 10 µM was 25.7%.

Question: What about the viability at 30 µM [5] of the same compound?
Answer: The viability at 30 µM was 24.7%.

Question: What about the viability at 50 µM [5] of the same compound?
Answer: The viability at 50 µM was 23.5%.
